From patent publication US20230098772A1, “ADVANCED MICROBIOME THERAPEUTICS ENGINEERED TO PRODUCE SEROTONIN IN VIVO” (DANMARKS TEKNISKE UNIVERSITET, priority 2019, published 2023)

B1: mutant GCH1: mutant GTP cyclohydrolase I with T198I substitution encoded by mutated folE gene (protein, UniProt P0A6T5 2-222, looked up, variant T198I)
GTP cyclohydrolase 1: PSLSKEAALVHEALVARGLETPLRPPVHEMDNETRKSLIAGHMTEIMQLLNLDLADDSLMETPHRIAKMYVDEIFSGLDYANFPKITLIENKMKVDEMVTVRDITLTSTCEHHFVTIDGKATVAYIPKDSVIGLSKINRIVQFFAQRPQVQERLTQQILIALQTLLGTNNVAVSIDAVHYCVKARGIRDATSATTTISLGGLFKSSQNTRHEFLRAVRHHN

Experiments:
mice [1] = experiment: Forced Swim Test after 21 days treatment, comparison with fluoxetine; assay type: in vivo, mice (C57BL/6); conditions: oN14 10^9 cells oral gavage, fluoxetine 10 mg/kg I.P.
Procedure: 9.1.2 Forced Swim Test: Each mouse was placed in clear cylindrical tanks (30 cm height×20 cm) with 15 cm of water at 23-25° C. for 6 minutes and recorded, as described by Ferguson (2001). Mice were then towel dried and placed under a heat lamp to dry to prevent hypothermia and then placed back in their original cage. Recordings were de-identified and a blinded observer, scored recordings for the time spent immobile during the last 4 minutes of the 6-minute test, as described by Can et al., (2012).
10.1.1 Administration: as described for oral administration in 6.1.1, but with the following modifications: The mice were administered sterile PBS only (PBS) or freshly-grown 10^9 cells of E. coli Nissle strain designated oN14 (E. coli Nissle strain oN comprising pMUT14-ser) in sterile PBS (oN14) by oral gavage. Additionally, the mice were administered a 200 μl intraperitoneal (I.P.) injection of saline or the SSRI, fluoxetine at 10 mg/kg body weight in saline. The mice received the oral and IP administered co-treatments every 24 hrs at the same time of day for 21 days. Accordingly, the four mice treatment groups received: IP: saline/Gavage: PBS (negative control); IP: Fluoxetine/Gavage: PBS (SSRI positive comparator), IP: saline/Gavage: oN14 (oN14 positive comparator); and IP: Fluoxetine/Gavage: oN14 (positive combination comparator). […]

mice [2] = experiment: Open Field Test after 21 days treatment, comparison with fluoxetine; assay type: in vivo, mice (C57BL/6); conditions: oN14 10^9 cells oral gavage, fluoxetine 10 mg/kg I.P.
Procedure: 9.1.3 Open Field Test: Each mouse was placed in a white, open-roof, well lite, 50 cm (length)×50 cm (width)×38 cm (height) chamber and recorded for 10 minutes following previously described methods (Spohn, S. N. et al., 2016). Mice were then placed back into their original cage. Fecal pellets produced during the 10-minute test were counted. Recordings were then post processed and analyzed using BehaviorCloud as previously described (Spohn, S. N. et al., 2016). Mouse tracking software recorded total path of movement of each mouse, total distance traveled, time spent in the inner zone defined as the […] and outer zone defined as the outer 10 cm border closest to the walls, number of times entering the inner zone, and distance traveled within the inner zone.
10.1.1 Administration: as described for oral administration in 6.1.1, but with the following modifications: The mice were administered sterile PBS only (PBS) or freshly-grown 10^9 cells of E. coli Nissle strain designated oN14 (E. coli Nissle strain oN comprising pMUT14-ser) in sterile PBS (oN14) by oral gavage. Additionally, the mice were administered a 200 μl intraperitoneal (I.P.) injection of saline or the SSRI, fluoxetine at 10 mg/kg body weight in saline. The mice received the oral and IP administered co-treatments every 24 hrs at the same time of day for 21 days. Accordingly, the four mice treatment groups received: IP: saline/Gavage: PBS (negative control); IP: Fluoxetine/Gavage: PBS (SSRI positive comparator), IP: saline/Gavage: oN14 (oN14 positive comparator); and IP: Fluoxetine/Gavage: oN14 (positive combination comparator). 24 hours after the last administration, the mice were subjected to motility and behavioral testing.

[3] = tested on: 5-HT biosynthetic pathway; experiment: In vitro metabolite production by E. coli Nissle strains (LC-MS of culture media); assay type: cell-based; conditions: strains comprising pMUT10-5htp; vs folE WT; FIG. 5F
Procedure: Strains were grown in a modified M9 medium, containing 1× M9 salts (M6030, Sigma Aldrich), 0.2% (w/v) glucose, 0.1% (w/v) casamino acids (Cat. No. C2000, Teknova), 1 mM MgSO4, 50 μM FeCl3, 0.2% (v/v) 2YT medium (composition see below), and 50 mg/L of L-tryptophan unless stated otherwise. Kanamycin was added at a final concentration of 50 mg/L unless stated otherwise. Three single colonies were picked from each strain, grown in 300 μl medium in 96 deep-well plates and shaken at 250 rpm at 37° C. for 16 hours. The main culture was inoculated by diluting this pre-culture 1:100 into fresh medium, and cells were grown for 24 h under the same conditions. In the case of substrate feeding, TRP and 5-HTP was added to the growth medium in an amount of 100 mg TRP or 5-HTP/L. Afterwards, the culture supernatant was separated from cells using a 0.2 μm pore size filter, and frozen at −20° C. until analysis by LC-MS. […]
Detection of serotonin, tryptamine, tryptophan and 5-HTP were conducted by liquid chromatography mass spectrometry (LC-MS) measurements on a Dionex UltiMate 3000 UHPLC (Fisher Scientific, San Jose, Calif.) connected to an Orbitrap Fusion Mass Spectrometer (Thermo Fisher Scientific, San Jose, Calif.). […] Quantification of the compounds was based on calculations from calibration standards analyzed before and after sets of 24 samples. […]

Molecule	time of immobility in Forced Swim Test (mice [1])	distance travelled in the inner zone in OFT (mice [2])	fecal boli produced during the OFT (mice [2])	time spent in the inner zone in OFT (mice [2])	total number of entries in the inner zone in OFT (mice [2])	increase of hydroxylation of tryptophan to 5-hydroxytryptophan catalyzed by human tryptophan 5-hydroxylase [3] [fold]
CNCCC(Oc1ccc(C(F)(F)F)cc1)c1ccccc1 (stereo not drawn) [Fluoxetine]	significantly reduce	increased	reduction	increased	increased	
B1						4
